Source: patent US20240383908A1, “SYNTHESIS AND APPLICATION OF PHOSPHATASE DEGRADER” (HINOVA PHARMACEUTICALS INC., priority 2021, published 2024)

Target: T1, SHP2 protein (Homo sapiens, UniProt Q06124)
T1 sequence (Q06124 1-593): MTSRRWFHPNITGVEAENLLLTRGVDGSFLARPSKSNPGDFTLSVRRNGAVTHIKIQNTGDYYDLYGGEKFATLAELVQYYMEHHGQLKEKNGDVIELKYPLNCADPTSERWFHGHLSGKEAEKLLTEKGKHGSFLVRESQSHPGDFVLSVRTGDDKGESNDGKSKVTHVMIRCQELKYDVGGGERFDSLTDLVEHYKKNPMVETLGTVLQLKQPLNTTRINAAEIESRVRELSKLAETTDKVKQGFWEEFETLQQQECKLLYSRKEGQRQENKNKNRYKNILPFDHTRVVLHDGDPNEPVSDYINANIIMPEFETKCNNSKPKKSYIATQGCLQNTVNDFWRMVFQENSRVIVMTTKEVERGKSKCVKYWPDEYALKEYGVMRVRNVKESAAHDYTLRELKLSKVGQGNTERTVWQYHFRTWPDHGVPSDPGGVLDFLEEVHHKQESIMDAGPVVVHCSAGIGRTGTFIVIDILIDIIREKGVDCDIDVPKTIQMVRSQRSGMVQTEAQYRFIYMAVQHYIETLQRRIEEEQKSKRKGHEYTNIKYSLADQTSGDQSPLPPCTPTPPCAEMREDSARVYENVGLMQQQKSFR
Assay: Degradation activity on SHP2 protein in MV-411 cells (Western blot, DC50)
Type: cell-based
Set-up: endogenous in cells
Conditions: MV411 cells, 24 hours, read-out: Degradation activity for differenct cell lines MV411 (DC50)
Method in brief: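 MV-411 cells (1×10^6 cells/well, IMDM + 10% FBS) were treated 24 h with compound at 0.1-100 nM final, 0.1% DMSO, duplicates. SHP2 measured by Western blot against GAPDH, band density normalised to DMSO control; DC50 from dose-response fit.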

DC50 [nM]	Structure (SMILES)
< 100	CN(Cc1ccc2c(c1)CN(C1CCC(=O)NC1=O)C2=O)C(=O)c1ccc(N2CCC3(CN(CCCCCC(=O)Nc4cccc(Sc5cnc(N6CCC(C)(N)CC6)cn5)c4)C3)C2)nn1 (stereo not shown) [Compound 165]
< 100	CN(Cc1ccc2c(c1)CN(C1CCC(=O)NC1=O)C2=O)C(=O)c1ccc(N2CCC3(CC(OCCCCCC(=O)Nc4cccc(Sc5cnc(N6CCC(C)(N)CC6)cn5)c4)C3)C2)nn1 (stereo not shown) [Compound 167]
< 100	CN(Cc1ccc2c(c1)CN(C1CCC(=O)NC1=O)C2=O)C(=O)c1ccc(N2CCC3(CN(CCCCCCC(=O)Nc4cccc(Sc5cnc(N6CCC(N)(CO)CC6)cn5)c4)C3)C2)nn1 (stereo not shown) [Compound 169]
< 100	CN(Cc1ccc2c(c1)CN(C1CCC(=O)NC1=O)C2=O)C(=O)c1cnc(N2CCC3(CN(CCCCCCC(=O)Nc4cccc(Sc5cnc(N6CCC(C)(N)CC6)cn5)c4)C3)C2)c(C(F)(F)F)c1 (stereo not shown) [Compound 171]
< 100	CC1(N)CCN(c2cnc(Sc3cccc(NC(=O)CCCCCCCN4CC5(CC(n6cc(C#Cc7ccc8c(c7)CN(C7CCC(=O)NC7=O)C8=O)cn6)C5)C4)c3)cn2)CC1 (stereo not shown) [Compound 172]
< 100	CN(Cc1ccc2c(c1)CN(C1CCC(=O)NC1=O)C2=O)C(=O)c1ccc(N2CCC(OCCCCCCCC(=O)Nc3cccc(Sc4cnc(N5CCC(C)(N)CC5)cn4)c3)C(F)(F)C2)nn1 (stereo not shown) [Compound 173]
< 100	CN(Cc1ccc2c(c1)CN(C1CCC(=O)NC1=O)C2=O)C(=O)c1cnc(N2CCC3(CN(CCCCCCC(=O)Nc4cccc(Sc5cnc(N6CCC(C)(N)CC6)cn5)c4)C3)C2)cn1 (stereo not shown) [Compound 180]
< 100	CN(Cc1ccc2c(c1)CN(C1CCC(=O)NC1=O)C2=O)C(=O)c1cnc(N2CCC3(CN(CCCCCCC(=O)Nc4cccc(Sc5cnc(N6CCC(C)(N)CC6)cn5)c4)C3)C2)c(Cl)c1 (stereo not shown) [Compound 182]
< 100	CN(Cc1ccc2c(c1)CN(C1CCC(=O)NC1=O)C2=O)C(=O)c1ccc(N2CC3CC(OCCCCCCC(=O)Nc4cccc(Sc5cnc(N6CCC(C)(N)CC6)cn5)c4)CC3C2)nn1 (stereo not shown) [Compound 184]
> 1000	CCCCCOC(=O)NC1(C)CCN(c2cnc(Sc3cccc(NC(=O)CCCCCCN4CC5(CCN(c6ccc(C(=O)NCc7ccc8c(c7)CN(C7CCC(=O)NC7=O)C8=O)nn6)C5)C4)c3)cn2)CC1 (stereo not shown) [Compound 187]
> 1000	CC1(N)CCN(c2cnc(Sc3cccc(NC(=O)CCCCCCN4CC5(CCN(c6ccc(C(NCc7ccc8c(c7)CN(C7CCC(=O)NC7=O)C8=O)C(F)(F)F)nn6)C5)C4)c3)cn2)CC1 (stereo not shown) [Compound 193, N-(3-((5-(4-amino-4-methylpyridin-1-yl)pyrazin-2-yl)thio)phenyl)-7-(6-(6-(1-(((2-(2,6-dioxopiperidin-3-yl)-1-oxoisoindol-5-yl)methyl)amino)-2,2,2-trifluoroethyl)pyridazin-3-yl)-2,6-diazaspiro[3.4]octan-2-yl)heptanamide]
< 100	NC1CCN(c2cnc(Sc3cccc(NC(=O)CCCCCCN4CC5(CCN(c6ccc(C(=O)NCc7ccc8c(c7)CN(C7CCC(=O)NC7=O)C8=O)nn6)C5)C4)c3)cn2)CC1CO (stereo not shown) [Compound 194]
100 to 1000	CC1(N)CCN(c2cnc(Sc3cccc(NC(=O)CCCCCCCCCCCNc4ccc(C(=O)NCc5ccc6c(c5)CN(C5CCC(=O)NC5=O)C6=O)nn4)c3)cn2)CC1 (stereo not shown) [Compound 195]
> 1000	N[C@H]1CCN(c2cnc(Sc3cccc(NC(=O)CCCCCN4CC5(CCN(c6ccc(C(=O)NCc7ccc8c(c7)CN(C7CCC(=O)NC7=O)C8=O)nn6)C5)C4)c3)cn2)C[C@@H]1O (stereo partly shown) [Compound 196]
> 1000	N[C@H]1CCN(c2cnc(Sc3cccc(NC(=O)CCCCCCN4CC5(CCN(c6ccc(C(=O)NCc7ccc8c(c7)CN(C7CCC(=O)NC7=O)C8=O)nn6)C5)C4)c3)cn2)C[C@@H]1O (stereo partly shown) [Compound 197]
> 1000	NC1(CO)CCN(c2cnc(Sc3cccc(NC(=O)CCCCCCN4CC5(CCN(c6ccc(C(=O)NCc7ccc8c(c7)CN(C7CCC(=O)NC7=O)C8=O)nn6)C5)C4)c3)cn2)C1 (stereo not shown) [Compound 198]
100 to 1000	NC1(CO)CCN(c2cnc(Sc3cccc(NC(=O)CCCCCCCNc4ccc(-c5ccc(C(=O)NCc6ccc7c(c6)C(=O)N(C6CCC(=O)NC6=O)C7)nn5)cc4)c3)cn2)CC1 (stereo not shown) [Compound 201]
< 100	NC1(CO)CCN(c2cnc(Sc3cccc(NC(=O)CCCCCCCCN4CC=C(c5ccc(C(=O)NCc6ccc7c(c6)CN(C6CCC(=O)NC6=O)C7=O)nn5)CC4)c3)cn2)CC1 (stereo not shown) [Compound 202]
> 1000	CC(C)(C)OC(=O)NCC1(O)C2CCC1CN(c1cnc(Sc3cccc(NC(=O)CCCCCCN4CC5(CCN(c6ccc(C(=O)NCc7ccc8c(c7)CN(C7CCC(=O)NC7=O)C8=O)nn6)C5)C4)c3)cn1)C2 (stereo not shown) [Compound 203]
> 1000	NCC1(O)C2CCC1CN(c1cnc(Sc3cccc(NC(=O)CCCCCCN4CC5(CCN(c6ccc(C(=O)NCc7ccc8c(c7)CN(C7CCC(=O)NC7=O)C8=O)nn6)C5)C4)c3)cn1)C2 (stereo not shown) [Compound 204]
> 1000	CC(C)(C)OC(=O)NC1CN(c2cnc(Sc3cccc(NC(=O)CCCCCCN4CC5(CCN(c6ccc(C(=O)NCc7ccc8c(c7)CN(C7CCC(=O)NC7=O)C8=O)nn6)C5)C4)c3)cn2)CC1O (stereo not shown) [Compound 205]
> 1000	NC1CN(c2cnc(Sc3cccc(NC(=O)CCCCCCN4CC5(CCN(c6ccc(C(=O)NCc7ccc8c(c7)CN(C7CCC(=O)NC7=O)C8=O)nn6)C5)C4)c3)cn2)CC1O (stereo not shown) [Compound 206]

The next lines start with the compound.

Structure (SMILES)	DC50 [nM]
CN[C@H](C)C(=O)N[C@@H](C(=O)N1C[C@@H](NC(=O)c2ccc(N3CC(C)N(CCCCCCCCC(=O)Nc4cccc(Sc5cnc(N6CCC(C)(N)CC6)cn5)c4)C(C)C3)nn2)C[C@@H]1C(=O)Nc1c(F)cccc1F)C(C)(C)C (stereo partly shown) [Compound 139]	> 1000
CN[C@H](C)C(=O)N[C@@H](C(=O)N1C[C@@H](NC(=O)c2ccc(N3CC4CCC(C3)N4CCCCCCCCC(=O)Nc3cccc(Sc4cnc(N5CCC(N)C(F)C5)cn4)c3)nn2)C[C@@H]1C(=O)Nc1c(F)cccc1F)C(C)(C)C (stereo partly shown) [Compound 142]	> 1000
NC1CCN(c2cnc(Sc3cccc(NC(=O)CCCCCCCCN4C5CCC4CN(c4ccc(C(=O)NCc6ccc7c(c6)CN(C6CCC(=O)NC6=O)C7=O)nn4)C5)c3)cn2)CC1F (stereo not shown) [Compound 143]	< 100
Cc1ncsc1-c1ccc([C@H](C)NC(=O)[C@@H]2C[C@@H](O)CN2C(=O)[C@@H](NC(=O)c2ccc(N3CCC4(CN(CCCCC(=O)Nc5cccc(Sc6cnc(N7CCC(C)(N)CC7)cn6)c5)C4)C3)nn2)C(C)(C)C)cc1 [Compound 144]	100 to 1000
CC1(N)CCN(c2cnc(Sc3cccc(NC(=O)CCCCN4CC5(CCN(c6ccc(C(=O)NCc7ccc8c(c7)CN(C7CCC(=O)NC7=O)C8=O)nn6)C5)C4)c3)cn2)CC1 (stereo not shown) [Compound 145]	< 100
CC1(N)CCN(c2cnc(Sc3cccc(NC(=O)CCCCCCCCN4C5CCC4CN(c4ccc(C(=O)N6CCN(c7ccc8c(c7)C(=O)N(C7CCC(=O)NC7=O)C8=O)CC6)nn4)C5)c3)cn2)CC1 (stereo not shown) [Compound 148]	< 100
CC1(N)CCN(c2cnc(Sc3cccc(NC(=O)CCCCCCCCN4C5CCC4CN(c4ccc(CN6CCN(c7ccc8c(c7)C(=O)N(C7CCC(=O)NC7=O)C8=O)CC6)nn4)C5)c3)cn2)CC1 (stereo not shown) [Compound 149]	< 100
CC1(N)CCN(c2cnc(Sc3cccc(NC(=O)/C=C/C(=O)N4CC5(CCN(CCCCCCC(=O)NCc6ccc7c(c6)CN(C6CCC(=O)NC6=O)C7=O)C5)C4)c3)cn2)CC1 (stereo not shown) [Compound 150]	> 1000
CC1(N)CCN(c2cnc(Sc3cccc(NC(=O)/C=C/C(=O)N4CCC5(CN(CCCCCCC(=O)NCc6ccc7c(c6)CN(C6CCC(=O)NC6=O)C7=O)C5)C4)c3)cn2)CC1 (stereo not shown) [Compound 151]	> 1000
CN(Cc1ccc2c(c1)CN(C1CCC(=O)NC1=O)C2=O)C(=O)c1ccc(N2CCC3(CN(CCCCCCC(=O)Nc4cccc(Sc5cnc(N6CCC(C)(N)CC6)cn5)c4)C3)C2)nn1 (stereo not shown) [Compound 152]	< 100
CC1(N)CCN(c2cnc(Sc3cccc(NC(=O)CCCCCCCOC4CCN(c5ccc(C(=O)NCc6ccc7c(c6)CN(C6CCC(=O)NC6=O)C7=O)nn5)CC4(F)F)c3)cn2)CC1 (stereo not shown) [Compound 153]	< 100
CC1(N)CCN(c2cnc(Sc3cccc(NC(=O)CCCCCCN4CC5(CCN(C6CCC(C(=O)NCc7ccc8c(c7)CN(C7CCC(=O)NC7=O)C8=O)CC6)C5)C4)c3)cn2)CC1 (stereo not shown) [Compound 158, 4-(2-(7-((3-((5-(4-amino-4-methylpyridin-1-yl)pyrazin-2-yl)thio)phenyl)amino)-7-oxoheptyl)-2,6-diazaspiro[3.4]octan6-yl)-N-((2-(2,6-dioxopiperidin-3-yl)-1-oxoisoindol-5-yl)methyl)cyclohexane-1-formamide]	100 to 1000
CCC1(N)CCN(c2cnc(Sc3cccc(NC(=O)CCCCCCN4CC5(CCN(c6ccc(C(=O)N(C)Cc7ccc8c(c7)CN(C7CCC(=O)NC7=O)C8=O)nn6)C5)C4)c3)cn2)CC1 (stereo not shown) [Compound 162]	< 100
CN(Cc1ccc2c(c1)CN(C1CCC(=O)NC1=O)C2=O)C(=O)c1ccc(N2CC[C@@H](OCCCCCCCC(=O)Nc3cccc(Sc4cnc(N5CCC(C)(N)CC5)cn4)c3)[C@@H](F)C2)nn1 (stereo partly shown) [Compound 163]	< 100
CC1(N)CCN(c2cnc(Sc3cccc(NC(=O)CCCCCN4CC5(CCN(c6ccc(C(=O)NCc7ccc8c(c7)CN(C7CCC(=O)NC7=O)C8=O)nn6)C5)C4)c3)cn2)CC1 (stereo not shown) [Compound 164]	< 100
